Among the data in patent US8802664B2 (Bioproject, priority 2010, dated 2014) are Ki or IC50 activity class values, retold here.

Structures are written as SMILES. A value given as a limit tells only on which side of the number the result lay.

T1 sequence (Q9H3N8 whole entry): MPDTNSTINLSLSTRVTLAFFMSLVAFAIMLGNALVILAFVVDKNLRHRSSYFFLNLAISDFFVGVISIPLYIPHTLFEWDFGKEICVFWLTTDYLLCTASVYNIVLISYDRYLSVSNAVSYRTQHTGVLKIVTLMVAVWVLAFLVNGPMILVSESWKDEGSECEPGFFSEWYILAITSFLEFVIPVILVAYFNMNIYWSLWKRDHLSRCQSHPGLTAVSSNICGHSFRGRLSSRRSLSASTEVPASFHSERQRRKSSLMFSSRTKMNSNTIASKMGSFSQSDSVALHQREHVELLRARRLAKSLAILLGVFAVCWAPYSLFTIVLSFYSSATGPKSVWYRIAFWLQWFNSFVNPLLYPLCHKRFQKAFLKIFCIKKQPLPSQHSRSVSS

This test concerns the target T1, human H4 receptor (Homo sapiens, UniProt Q9H3N8).
T1 construct: expressed in transfected cells
Nature of the test: [3H]Histamine binding on membranes of CHO cells stably expressing human H4 receptor. The method, boiled down: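 First, thawed CHO membranes carrying human H4 were diluted to 20 μg protein per well in pH 7.4 Tris/EDTA buffer. Next, incubation was ended by rapid filtration through PEI-treated GF/B filters followed by cold rinses. Finally, retained radioactivity was counted; 10 μM JNJ 7777120 marked nonspecific binding.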
`CN1CCC(OC(c2cccc(CCCCCNC(=N)NC(=O)OC(C)(C)C)c2)c2nc3ccccc3[nH]2)CC1` (stereo not shown) [Example 335, N-tert-butoxycarbonyl-N′-(-{3-[(1H-benzimidazol-2-yl)(1-methylpiperidin-4-yloxy)methyl]phenyl}pentyl)guanidine] returned a Ki or IC50 activity class below 0.3 µM. `CN1CCC(OC(c2cccc(C#CCNC(=N)NC(=O)OC(C)(C)C)c2)c2nc3ccccc3[nH]2)CC1` (stereo not shown) [Example 336, N-tert-butoxycarbonyl-N′-(3-{3-[(1H-benzimidazol-2-yl)(1-methylpiperidin-4-yloxy)methyl]phenyl}prop-2-ynyl)guanidine]: the Ki or IC50 activity class is below 0.3 µM. For the molecule `CN1CCC(OC(c2cccc(C#CCCCCN)c2)c2nc3ccccc3[nH]2)CC1` (stereo not shown) [Example 337, 6-{3-[(1H-benzimidazol-2-yl)(1-methylpiperidin-4-yloxy)methyl]phenyl}hex-5-ynylamine], the Ki or IC50 activity class is below 0.03 µM. `CN1CCC(OC(c2cccc(C3=CCNCC3)c2)c2nc3ccccc3[nH]2)CC1` (stereo not shown) [Example 338, 2-{(1-methylpiperidin-4-yloxy)[3-(1,2,3,6-tetrahydro-pyridin-4-yl)phenyl]methyl}-1H-benzimidazole]: the Ki or IC50 activity class is below 0.3 µM. For `CN1CCC(OC(c2cccc(C#CCCCNC(=N)N)c2)c2nc3ccccc3s2)CC1` (stereo not shown) [Example 340, N-(5-{3-[benzothiazol-2-yl(1-methylpiperidin-4-yloxy)methyl]phenyl}pent-4-ynyl)guanidine], the Ki or IC50 activity class was below 0.03 µM. On to `CN1CCC(OC(c2cccc(C#CCCCCNC(=N)N)c2)c2nc3ccccc3s2)CC1` (stereo not shown) [Example 342, N-(6-{3-[benzothiazol-2-yl(1-methylpiperidin-4-yloxy)methyl]phenyl}hex-5-ynyl)guanidine], for which the Ki or IC50 activity class is below 0.3 µM.

For `CN1CCC(OC(c2cccc(CCCCCCN)c2)c2nc3ccccc3[nH]2)CC1` (stereo not shown) [Example 344, 6-{3-[(1H-benzimidazol-2-yl)(1-methylpiperidin-4-yloxy)methyl]phenyl}hexylamine], the Ki or IC50 activity class was below 0.3 µM. As to `CN1CCC(OC(c2cccc(C#CCCCCNC(=N)NC(=O)OC(C)(C)C)c2)c2nc3ccccc3[nH]2)CC1` (stereo not shown) [Example 345, N-tert-butoxycarbonyl-N′-(6-{3-[(1H-benzimidazol-2-yl)(1-methylpiperidin-4-yloxy)methyl]phenyl}hex-5-ynyl)guanidine], the Ki or IC50 activity class is below 0.3 µM. Molecule `CN1CCC(OC(c2cccc(C#CCCCCNC(=N)N)c2)c2nc3ccccc3[nH]2)CC1` (stereo not shown) [Example 346, N-(6-{3-[(1H-benzimidazol-2-yl)(1-methylpiperidin-4-yloxy)methyl]phenyl}hex-5-ynyl)guanidine] displayed a Ki or IC50 activity class below 0.3 µM.

`CC(C)NC(=S)NCCSc1cccc(C(OC2CCN(C)CC2)c2nc3ccccc3[nH]2)c1` (stereo not shown) [Example 347, 1-(2-{3-[(1H-benzimidazol-2-yl)(1-methylpiperidin-4-yloxy)methyl]phenylsulfanyl}ethyl)-3-isopropylthiourea] returned a Ki or IC50 activity class below 1 µM.

Molecule `CN1CCC(OC(c2cccc(OCCCn3cncn3)c2)c2nc3ccccc3s2)CC1` (stereo not shown) [Example 348, 2-{(1-methylpiperidin-4-yloxy)[3-(3-[1,2,4]triazol-1-yl-propoxy)phenyl]methyl}benzothiazole] registered a Ki or IC50 activity class below 1 µM. On to `CN1CCC(OC(c2cccc(OCCCN3CCOCC3)c2)c2nc3ccccc3s2)CC1` (stereo not shown) [Example 350, 2-{(1-methylpiperidin-4-yloxy)[3-(3-morpholin-4-yl-propoxy)phenyl]methyl}benzothiazole], for which the Ki or IC50 activity class is below 1 µM. In turn, `CN1CCC(OC(c2cccc(OCCCN3CCN(C(=O)OC(C)(C)C)CC3)c2)c2nc3ccccc3s2)CC1` (stereo not shown) [Example 351, 4-(3-{3-[benzothiazol-2-yl(1-methylpiperidin-4-yloxy)methyl]phenoxy}propyl)piperazine-1-carboxylic acid tert-butyl ester] displayed a Ki or IC50 activity class below 1 µM. The value for `CN1CCC(OC(c2cccc(C3=CCN(C(=N)N)CC3)c2)c2nc3ccccc3[nH]2)CC1` (stereo not shown) [Example 353, 4-{3-[(1H-benzimidazol-2-yl)(1-methylpiperidin-4-yloxy)methyl]phenyl}-3,6-dihydro-2H-pyridine-1-carboxamidine] was below 0.3 µM; that for `CN1CCC(OC(c2cccc(OCCCl)c2)c2nc3ccccc3s2)CC1` (stereo not shown) [Example 354, 2-[[3-(2-Chloroethoxy)phenyl](1-methylpiperidin-4-yloxy)methyl]benzothiazole] was below 0.03 µM. Take `CN1CCC(OC(c2cccc(CCCCCCNC(=N)N)c2)c2nc3ccccc3[nH]2)CC1` (stereo not shown) [Example 355, N-(6-{3-[(1H-benzimidazol-2-yl)(1-methylpiperidin-4-yloxy)methyl]phenyl}hexyl)guanidine]: the Ki or IC50 activity class was below 0.3 µM.

`CN1CCC(OC(c2cccc(OCCN3CCCCC3)c2)c2nc3ccccc3[nH]2)CC1` (stereo not shown) [Example 356, 2-{(1-methylpiperidin-4-yloxy)[3-(2-piperidin-1-yl-ethoxy)phenyl]methyl}-1H-benzimidazole] had a Ki or IC50 activity class below 1 µM. `CN1CCC(OC(c2cccc(C#CCCCNC(=N)NC(=O)OC(C)(C)C)c2)c2nc3ccccc3[nH]2)CC1` (stereo not shown) [Example 357, N-tert-butoxycarbonyl-N′-(5-{3-[(1H-benzimidazol-2-yl)(1-methylpiperidin-4-yloxy)methyl]phenyl}pent-4-ynyl)guanidine] came in with a Ki or IC50 activity class below 0.3 µM. Turning to `CN1CCC(OC(c2cccc(C#CCCCNC(=N)N)c2)c2nc3ccccc3[nH]2)CC1` (stereo not shown) [Example 358, N-(5-{3-[(1H-benzimidazol-2-yl)(1-methylpiperidin-4-yloxy)methyl]phenyl}pent-4-ynyl)guanidine], the Ki or IC50 activity class is below 0.03 µM. For `CN1CCC(OC(c2cccc(SCCCCN)c2)c2nc3ccccc3s2)CC1` (stereo not shown) [Example 359, 4-{3-[benzothiazol-2-yl(1-methylpiperidin-4-yloxy)methyl]phenylsulfanyl}butylamine], the Ki or IC50 activity class was below 0.03 µM. Regarding `CN1CCC(OC(c2cccc(OCCCN3CCN(C(=O)OC(C)(C)C)CC3)c2)c2nc3ccccc3[nH]2)CC1` (stereo not shown) [Example 360, 4-(3-{3-[(1H-benzimidazol-2-yl)(1-methylpiperidin-4-yloxy)methyl]phenoxy}propyl)piperazine-1-carboxylic acid tert-butyl ester], the Ki or IC50 activity class is below 1 µM. For `CN1CCC(OC(c2cccc(OCCNCC(=O)OC(C)(C)C)c2)c2nc3ccccc3[nH]2)CC1` (stereo not shown) [Example 361, (2-{3-[(1H-benzimidazol-2-yl)(1-methylpiperidin-4-yloxy)methyl]phenoxy}ethylamino)acetic acid tert-butyl ester], the Ki or IC50 activity class is below 1 µM. Take `CN1CCC(OC(c2cccc(CCCCCCNC(=N)N)c2)c2nc3ccccc3s2)CC1` (stereo not shown) [Example 363, N-(6-{3-[benzothiazol-2-yl(1-methylpiperidin-4-yloxy)methyl]phenyl}hexyl)guanidine]: the Ki or IC50 activity class was below 0.3 µM. The molecule `CN1CCC(OC(c2cccc(CCCCCNC(=N)N)c2)c2nc3ccccc3s2)CC1` (stereo not shown) [Example 365, N-(5-{3-[benzothiazol-2-yl(1-methylpiperidin-4-yloxy)methyl]phenyl}pentyl)guanidine] returned a Ki or IC50 activity class below 0.3 µM.

Take `CN1CCC(OC(c2cccc(CCCCN)c2)c2nc3ccccc3s2)CC1` (stereo not shown) [Example 366, 4-{3-[benzothiazol-2-yl(1-methylpiperidin-4-yloxy)methyl]phenyl}butylamine]: the Ki or IC50 activity class was below 0.03 µM. In the case of `CN1CCC(OC(c2cccc(OCCN3CCN(C(=O)OC(C)(C)C)CC3)c2)c2nc3ccccc3[nH]2)CC1` (stereo not shown) [Example 369, 4-(2-{3-[(1H-benzimidazol-2-yl)(1-methylpiperidin-4-yloxy)methyl]phenoxy}ethyl)piperazine-1-carboxylic acid tert-butyl ester], the Ki or IC50 activity class is below 1 µM. In the case of `CN1CCC(OC(c2cccc(OCCNCC(=O)OC(C)(C)C)c2)c2nc3ccccc3s2)CC1` (stereo not shown) [Example 370, (2-{3-[benzothiazol-2-yl(1-methylpiperidin-4-yloxy)methyl]phenoxy}ethylamino)acetic acid tert-butyl ester], the Ki or IC50 activity class was below 1 µM. As to `CN1CCC(OC(c2cccc(OCCCCCN)c2)c2nc3ccccc3s2)CC1` (stereo not shown) [Example 371, 5-{3-[benzothiazol-2-yl(1-methylpiperidin-4-yloxy)methyl]phenoxy}pentylamine], the Ki or IC50 activity class was below 0.03 µM. Consider `CN1CCC(OC(c2cccc(C#CCCNC(=N)N)c2)c2nc3ccccc3s2)CC1` (stereo not shown) [Example 372, N-(4-{3-[benzothiazol-2-yl(1-methylpiperidin-4-yloxy)methyl]phenyl}but-3-ynyl)guanidine], for which the Ki or IC50 activity class is below 0.03 µM. The result for `CN1CCC(OC(c2cccc(C#CCNC(=N)N)c2)c2nc3ccccc3s2)CC1` (stereo not shown) [Example 373, N-(3-{3-[benzothiazol-2-yl(1-methylpiperidin-4-yloxy)methyl]phenyl}prop-2-ynyl)guanidine] reads below 0.03 µM; that for `CN1CCC(OC(c2cccc(CCCCNC(=N)N)c2)c2nc3ccccc3s2)CC1` (stereo not shown) [Example 374, N-(4-{3-[benzothiazol-2-yl(1-methylpiperidin-4-yloxy)methyl]phenyl}butyl)guanidine], below 0.03 µM; that for `CN1CCC(OC(c2cccc(OCCCCCNCC(=O)OC(C)(C)C)c2)c2nc3ccccc3s2)CC1` (stereo not shown) [Example 375, (5-{3-[benzothiazol-2-yl(1-methylpiperidin-4-yloxy)methyl]phenoxy}pentylamino)acetic acid tert-butyl ester], below 1 µM. In turn, `CN1CCC(OC(c2cccc(C#CC3CCNCC3)c2)c2nc3ccccc3[nH]2)CC1` (stereo not shown) [Example 376, 2-[(1-methylpiperidin-4-yloxy)(3-piperidin-4-ylethynyl-phenyl)methyl]-1H-benzimidazole] registered a Ki or IC50 activity class below 1 µM. The molecule `CN1CCC(OC(c2cccc(OCC3CCNCC3)c2)c2nc3ccccc3s2)CC1` (stereo not shown) [Example 377, 2-{(1-methylpiperidin-4-yloxy)[3-(piperidin-4-ylmethoxy)phenyl]methyl}benzothiazole] returned a Ki or IC50 activity class below 0.3 µM.
